US6426370B1, “Use of thiol compounds in viral inactivation” (priority 2000, dated 2002)
Where “and” joins values, the source holds several entries; their conditions need not be identical. Equal values may be shown once.

Assays:
[1] = tested on: human immunodeficiency virus (HIV); assay: p24-Ag test in cell culture medium of HIV-infected H9 cells, virions treated with NAC prior to infection; type: cell-based; settings: for p24-Ag content in the cell culture medium, extinction at 492 nm: day 26 after infection, NAC-treated virions, exclusion limit <0.093
Description: (§1) In order to examine whether NAC influences the HIV infection of cells, HIV-permissive cells ([…]) were incubated together with HIV-positive cell culture supernatant and the syncytia formation taking place upon successful infection of the host cell was observed. The H9 cell line is a CD4+ T-cell line of human origin (Popovic et al., 1984, Science 224:497-500). The HI virions (viral titer of the original solution is 10^7 viruses/ml) were initially pre-incubated together with NAC at room temperature for two hours (final NAC concentration 0.09 M, dissolved in serum-free cell culture medium) and then mixed with cell culture medium in a decadic dilution series (10^−1 to 10^−5). The same was made analogously with the control without NAC addition. Thereafter, the thus pretreated virions (and the untreated control, respectively) were added to the H9 cell culture for two hours to enable the adsorption of the viruses. Then, the suspension was washed with NAC-free medium and 48-well cell culture plates were covered therewith. Pour parallel assays were carried out for each dilution series. The giant cell formation was observed microscopically over an observation period of 26 days and assessed on a scale from 0 (no syncytia detectable) to 3 (great number of syncytia). It can be seen in connection with the untreated control (FIG. 1) that the syncytia formation is delayed when the viral titer decreases. The degree of syncytia formation is thus directly proportional to the number of infectious viruses. While with a viral titer of 10^5 the syncytia formation starts within four days already, it is delayed by about 2 weeks when the original virus solution has been diluted 10,000 times.
This reduction of the infectiosity titer could also be confirmed by means of the p24-Ag test. For this purpose, the cell culture medium was renewed four days prior to the end of the experiment and the p24-Ag content of the cell culture medium was quantified upon termination of the experiment (day 26) (TABLE I). The p24-Ag values of the untreated control were always clearly positive.

[2] = tested on: human immunodeficiency virus (HIV); assay: Syncytia formation of H9 cells infected with HIV virions pre-incubated with NAC; type: cell-based; settings: for Test positives p/4 (syncytia formation): virions pre-incubated with 0.09 M NAC for 2 h, 4 parallel assays
Description: as §1
The delay of giant cell formation, which is shown in FIG. 1, is due to a reduction of the number of infectious virions—because of a correlation between viral titer and the number of syncytia. It is in no case caused by an influence of the metabolism of the host cell. The reduced capability to form giant cells (FIG. 1) can be quantified as titer exponent n by observing the laws established by Spearmann-Kärber.
With a total number of 4 preparations per dilution series there is [formula]
Thus, nNAC=−2.5 follows for the titer exponent after NAC treatment. Since the dilution stage of the untreated control, where syncytia formation could no longer be observed, was not determined accurately in this experiment, the maximum value for this preparation, i.e., 10^−6 was assumed as a calculation basis. Correspondingly, the titer of the untreated control is 10^−5,5 or less. The titer after the NAC treatment is 10^−2,5.

[3] = tested on: HBsAg; assay: HBsAg antigenicity of NAC-treated HBV-positive supernatant with or without dialysis; type: biochemical, hepatitis B virus; settings: 15 min incubation with NAC, dialysis against TNE buffer at 4° C. overnight versus not dialyzed
[4] = tested on: HBsAg (hepatitis-B virus surface antigen); assay: Enzyme immunoassay (Abbott Auszyme) of HBsAg in HepG2-2.2.15 supernatant treated with NAC; type: biochemical; settings: 50 mM NAC
Description: The cell culture supernatant of a HBV-producing cell line (HepG2-2.2.15 cells, Sells et al., 1984, Proc. Natl. Acad. U.S.A. 84:1005-1009) was separated from the cells and then the viral antigens (HBsAg, hepatitis-B virus “surface” antigen) of the viral envelope were identified by means of an enzyme immunoassay (EIA). In a parallel experimental assay, the cell culture supernatant was treated with NAC directly before the EIA was carried out. […] Since as is known the main antigenic domain of HBsAg is stabilized by numerous disulfide bridges, it can be inferred from this experiment that NAC effects a change in the three-dimensional structure on the virus surface, which is caused by a separation of disulfide bridges. These very viral surface structures are essential for the attachment of the virus to its host cell and thus for its infectiosity.

[5] = tested on: vaccinia viruses; assay: Plaque assay of vaccinia virus pre-incubated with NAC on CV1 cells; type: cell-based; settings: pre-incubation with 3, 10, 30 mM NAC, assay variation ±9%
[6] = tested on: HBeAg (hepatitis-B virus e antigen); assay: Enzyme immunoassay (Abbott HBe EIA) of HBeAg in HepG2-2.2.15 supernatant treated with NAC; type: biochemical; settings: 50 mM NAC

CC(=O)N[C@@H](CS)C(=O)O [NAC, N-acetyl cysteine]
p24-Ag content in the cell culture medium versus untreated control ([1]; from an HIV dilution factor of 1/100 on, day 26): marked reduction | p24-Ag content in the cell culture medium, extinction at 492 nm ([1]; virus dilution 10^-1): >2.0 O.D. 492 nm | p24-Ag content in the cell culture medium, extinction at 492 nm ([1]; virus dilution 10^-5): 0.069 O.D. 492 nm and 0.04 O.D. 492 nm and 0.044 O.D. 492 nm | reduction of the viral titer, measured on the basis of syncytia formation capability ([2]; 0.09 M NAC versus untreated control): at least three decimal exponents | titer exponent n after NAC treatment (Spearmann-Kärber) ([2]; 0.09 M NAC, 2 h, room temperature, syncytia formation): −2.5 | syncytia formation within the observation period ([2]; NAC-treated virions diluted by more than 100 times (viral titer <10^4), observation period of four weeks): no longer possible to observe syncytia formation | Test positives p/4 (syncytia formation) ([2]; class limit -1 (virus dilution 10^-1)): 4/4 | Test positives p/4 (syncytia formation) ([2]; class limit -2 (virus dilution 10^-2)): 1/4 | Test positives p/4 (syncytia formation) ([2]; class limit -3 (virus dilution 10^-3)): 1/4 | Test positives p/4 (syncytia formation) ([2]; class limit -4 (virus dilution 10^-4)): 2/4 | Test positives p/4 (syncytia formation) ([2]; class limit -5 (virus dilution 10^-5)): 0/4 | effect of NAC on the viruses (HBsAg antigenicity) after removing NAC by dialysis [3]: irreversible | detection of HBsAg by EIA [4]: not possible | reduction of the viral titer of the vaccinia virus suspension [5]: up to 70% | recognition of HBeAg by EIA [6]: recognized unrestrictedly
